The results in this text go back to EP2567959B1, “6-(4-HYDROXY-PHENYL)-3-STYRYL-1H-PYRAZOLO[3,4-B]PYRIDINE-4-CARBOXYLIC ACID AMIDE DERIVATIVES AS KINASE INHIBITORS” (SANOFI, priority 2011, dated 2013).

The term inhibition denotes the drop in the measured response relative to a control, in per cent.

The experiment deals with T1, human full-length recombinant PKC βII (Homo sapiens, UniProt P05771).
T1 construct: Active human full-length recombinant PKC βII; purchased Invitrogen GmbH, Darmstadt, Germany
T1 sequence (P05771 1-673 isoform P05771-2): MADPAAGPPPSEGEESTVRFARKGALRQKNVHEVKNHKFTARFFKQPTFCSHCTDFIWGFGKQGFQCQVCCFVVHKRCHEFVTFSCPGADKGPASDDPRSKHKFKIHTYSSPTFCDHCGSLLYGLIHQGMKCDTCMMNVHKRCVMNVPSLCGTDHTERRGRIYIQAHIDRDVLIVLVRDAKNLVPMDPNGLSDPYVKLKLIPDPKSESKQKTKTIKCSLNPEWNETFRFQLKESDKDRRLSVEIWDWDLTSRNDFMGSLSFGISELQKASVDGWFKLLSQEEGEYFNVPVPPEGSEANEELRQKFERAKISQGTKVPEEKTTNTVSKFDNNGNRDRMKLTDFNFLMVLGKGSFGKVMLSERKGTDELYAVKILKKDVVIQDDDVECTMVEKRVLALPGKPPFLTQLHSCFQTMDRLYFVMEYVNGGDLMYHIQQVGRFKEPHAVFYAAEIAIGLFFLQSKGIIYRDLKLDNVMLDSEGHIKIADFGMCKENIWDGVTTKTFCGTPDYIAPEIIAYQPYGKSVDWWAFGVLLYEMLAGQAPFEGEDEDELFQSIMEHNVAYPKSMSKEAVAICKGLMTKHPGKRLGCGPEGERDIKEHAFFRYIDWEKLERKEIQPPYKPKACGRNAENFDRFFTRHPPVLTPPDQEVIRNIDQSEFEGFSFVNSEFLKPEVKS
As to the kind of experiment: Determination of PKC βII inhibition (Caliper mobility-shift kinase assay, phosphorylation of fluorescein peptide substrate). The format is biochemical. The conditions noted are these: final compound concentration 1.14 µM (±0.15 µM); 60 min incubation at 32 °C. As to the method:
Determination of PKC βII inhibition
PKC βII inhibition was determined according to the following protocol:
Active human full-length recombinant PKC βII and the peptide substrate, Fluorescein-RFARKGSLRQKNV, were purchased from Invitrogen GmbH, Darmstadt, Germany. Adenosine-5'-triphosphate (ATP), bovine serum albumine (BSA), dimethylsulphoxide (DMSO), 4-(2-hydroxyethyl)piperazine-1-ethanesulfonic acid (Hepes), Triton X-100, 1,2-Dioleoyl-sn-glycerol (DAG), L-α-Phosphatidyl-L-serine (PS), calcium chloride (CaCl2), and Pluronic F-68 were purchased from Sigma-Aldrich, Munich, Germany. Magnesium chloride, 1 M sodium hydroxide solution, 1M hydrochloric acid solution and EDTA were obtained from Merck Biosciences, Darmstadt, Germany.
Test compounds were diluted to three times the test concentration in buffer 1 (30 mM Hepes-NaOH, pH 7.4, 0.01 % Pluronic F-68 and 3 % (v/v) DMSO). The PKC βII enzyme was diluted to a concentration of 30 ng/ml in buffer 2 (30 mM Hepes-NaOH, pH 7.4, 15 mM MgCl2,150 µM CaCl2, 150 µg/ml PS, 60 µg/ml DAG, and 0.045 % (w/v) Triton X-100). The peptide substrate and ATP were diluted to concentrations of 3 µM and 120 µM, respectively, in buffer 2. Two µl of the compound solution were mixed with 2 µl of the diluted enzyme in a 384-well small volume microtiter plate (Greiner, Bio-One, Frickenhausen, Germany), and the kinase reaction was initiated by addition of 2 µl of the solution containing peptide substrate and ATP. After 60 min incubation at 32 °C, the reaction was stopped by addition of 20 µl of a solution containing 130 mM Hepes-NaOH, pH 7.4, 0.0195 % (v/v) Brij-35, 6.5 mM EDTA, 0.13 % chip coating reagent 3 (Caliper Lifescience Inc, Hopkinton, MA) and 6.5 % (v/v) DMSO. Phosphorylation of the substrate peptide was then detected on a Caliper 3000 instrument essentially as described by Pommereau et al (J. Biomol. Screening 2004, 9(5), 409-416). Separation conditions were as follows: Pressure -0.8 psi, upstream voltage - 3000 V, downstream voltage -800 V. Positive controls (buffer 1 instead of compound) and negative controls (buffer 1 instead of compound and buffer 2 instead of kinase solution) were run in parallel on each plate. Fractional turnover (R) was determined as the height of the peak of the phosphorylated peptide product divided by the sum of the unphosphorylated substrate and phosphorylated product peak heights. Percent-inhibition values for the test compounds were determined using the formula % Inhibition = 100*(1-(Rcompound-Rnegative control)/(Rpositive control-Rnegative control). [formula]
In the following table % inhibition values observed with example compounds at a final concentration of 1.14 µM (±0.15 µM) are listed: […]
`Cc1ccc(/C=C/c2n[nH]c3nc(-c4ccc(O)cc4)cc(C(=O)N4CCNCC4)c23)c(C)c1` [Example 49, [3-[(E)-2-(2,4-Dimethylphenyl)-vinyl]-6-(4-hydroxy-phenyl)-1H-pyrazolo[3,4-b]pyridin-4-yl]-piperazin-1-yl-methanone]: the inhibition at 1.14 µM was 88%.

Consider `Cc1ccc(C)c(/C=C/c2n[nH]c3nc(-c4ccc(O)cc4)cc(C(=O)N4CCNCC4)c23)c1` [Example 50, [3-[(E)-2-(2,5-Dimethylphenyl)-vinyl]-6-(4-hydroxy-phenyl)-1H-pyrazolo[3,4-b]pyridin-4-yl]-piperazin-1-yl-methanone], for which the inhibition at 1.14 µM came out at 92%.

Regarding `CC(C)c1ccc(/C=C/c2n[nH]c3nc(-c4ccc(O)cc4)cc(C(=O)N4CCNCC4)c23)cc1` [Example 51, {6-(4-Hydroxy-phenyl)-3-[(E)-2-(4-isopropyl-phenyl)-vinyl]-1H-pyrazolo[3,4-b]pyridin-4-yl}-piperazin-1-yl-methanone], the inhibition at 1.14 µM was 94%.

Regarding `O=C(c1cc(-c2ccc(O)cc2)nc2[nH]nc(/C=C/c3ccc(F)cc3Cl)c12)N1CCNCC1` [Example 52, [3-[(E)-2-(2-Chloro-4-fluorophenyl)-vinyl]-6-(4-hydroxy-phenyl)-1H-pyrazolo[3,4-b]pyridin-4-yl]-piperazin-1-yl-methanone], the inhibition at 1.14 µM was 91%.

Regarding `CCc1ccc(/C=C/c2n[nH]c3nc(-c4ccc(O)cc4)cc(C(=O)N4CCNCC4)c23)cc1` [Example 53, [3-[(E)-2-(4-Ethyl-phenyl)-vinyl]-6-(4-hydroxy-phenyl)-1H-pyrazolo[3,4-b]pyridin-4-yl]-piperazin-1-yl-methanone], the inhibition at 1.14 µM was found to be 95%.

In the case of `CC(C)(C)c1ccc(/C=C/c2n[nH]c3nc(-c4ccc(O)cc4)cc(C(=O)N4CCNCC4)c23)cc1` [Example 54, [3-[(E)-2-(4-tert-Butyl-phenyl)-vinyl]-6-(4-hydroxy-phenyl)-1H-pyrazolo[3,4-b]pyridin-4-yl]-piperazin-1-yl-methanone], the inhibition at 1.14 µM was 95%.

In the case of `Cc1ccc(/C=C/c2n[nH]c3nc(-c4ccc(O)cc4)cc(C(=O)N4CCNCC4)c23)cc1F` [Example 55, [3-[(E)-2-(3-Fluoro-4-methyl-phenyl)-vinyl]-6-(4-hydroxy-phenyl)-1H-pyrazolo[3,4-b]pyridin-4-yl]-piperazin-1-yl-methanone], the inhibition at 1.14 µM was 76%.

For `COc1cccc(/C=C/c2n[nH]c3nc(-c4ccc(O)cc4)cc(C(=O)N4CCNCC4)c23)c1` [Example 56, {6-(4-Hydroxy-phenyl)-3-[(E)-2-(3-methoxyphenyl)-vinyl]-1H-pyrazolo[3,4-b]pyridin-4-yl}-piperazin-1-yl-methanone], the inhibition at 1.14 µM came out at 100%.

Consider `CC(=O)c1ccc(/C=C/c2n[nH]c3nc(-c4ccc(O)cc4)cc(C(=O)N4CCNCC4)c23)cc1` [Example 57, 1-(4-{(E)-2-[6-(4-Hydroxy-phenyl)-4-(piperazine-1-carbonyl)-1H-pyrazolo[3,4-b]pyridin-3-yl]-vinyl}-phenyl)-ethanone], for which the inhibition at 1.14 µM came to 98%.

For `O=C(c1cc(-c2ccc(O)cc2)nc2[nH]nc(/C=C/c3ccc(OC(F)(F)F)cc3)c12)N1CCNCC1` [Example 58, {6-(4-Hydroxyphenyl)-3-[(E)-2-(4-trifluorome-thoxy-phenyl)-vinyl]-1H-pyrazo-lo[3,4-b]pyridin-4-yl}-piperazin-1-yl-methanone], the inhibition at 1.14 µM was 89%.

Take `O=C(c1cc(-c2ccc(O)cc2)nc2[nH]nc(/C=C/c3ccc(F)c(F)c3)c12)N1CCNCC1` [Example 59, [3-[(E)-2-(3,4-Difluoro-phenyl)-vinyl]-6-(4-hydroxy-phenyl)-1H-pyrazolo[3,4-b]pyridin-4-yl]-piperazin-1-yl-methanone]: the inhibition at 1.14 µM turned out to be 97%.

As for `COc1ccccc1/C=C/c1n[nH]c2nc(-c3ccc(O)cc3)cc(C(=O)N3CCNCC3)c12` [Example 60, {6-(4-hydroxy-phenyl)-3-[(E)-2-(2-methoxy-phenyl)-vinyl]-1H-pyrazolo[3,4-b]pyridin-4-yl}-piperazin-1-yl-methanone], the inhibition at 1.14 µM was 98%.
